Each structure is given as a SMILES string.

Holding throughout (test): Kinase selectivity, scanMAX Kinase assay panel (DiscoverX), % control at 1 uM
Holding throughout (type): binding

Assay [1] concerns the target T1, scanMAX Kinase assay panel (Homo sapiens, UniProt Q9H4A3).
T1 construct: purchased DiscoverX
Particulars: WNK1; 1 uM; read-out: Percent Control (%). The method, boiled down: (§1)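 Activity was called for kinases showing % control under 35, calculated from compound signal relative to positive and negative controls. Each compound screened at 1 uM against the DiscoverX scanMAX panel.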

The target of assay [2] is T2, scanMAX Kinase assay panel (Homo sapiens, UniProt Q92630).
T2 construct: purchased DiscoverX
T2 sequence (Q92630 1-601): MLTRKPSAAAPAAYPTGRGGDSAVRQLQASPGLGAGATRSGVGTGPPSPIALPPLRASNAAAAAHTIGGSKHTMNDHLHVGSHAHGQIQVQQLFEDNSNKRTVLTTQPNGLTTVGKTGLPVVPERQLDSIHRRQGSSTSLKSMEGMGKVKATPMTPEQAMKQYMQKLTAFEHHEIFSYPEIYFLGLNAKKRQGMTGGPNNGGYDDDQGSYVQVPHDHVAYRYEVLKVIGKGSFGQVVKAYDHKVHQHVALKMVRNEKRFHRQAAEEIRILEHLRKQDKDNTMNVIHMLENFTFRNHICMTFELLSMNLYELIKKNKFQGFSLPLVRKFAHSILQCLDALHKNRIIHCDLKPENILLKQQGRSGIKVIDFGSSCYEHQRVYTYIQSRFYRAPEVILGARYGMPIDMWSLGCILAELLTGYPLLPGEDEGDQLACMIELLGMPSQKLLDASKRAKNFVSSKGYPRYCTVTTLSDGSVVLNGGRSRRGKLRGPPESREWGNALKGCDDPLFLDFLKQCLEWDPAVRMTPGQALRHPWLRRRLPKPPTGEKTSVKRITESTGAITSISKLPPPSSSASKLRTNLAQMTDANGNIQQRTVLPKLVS
The conditions noted are these: DYRK2; 1 uM; read-out: Percent Control (%). The method, boiled down:
as §1

Assay [3] deals with T3, scanMAX Kinase assay panel (Homo sapiens, UniProt Q96PY6).
T3 construct: purchased DiscoverX
T3 sequence (Q96PY6 1-1258): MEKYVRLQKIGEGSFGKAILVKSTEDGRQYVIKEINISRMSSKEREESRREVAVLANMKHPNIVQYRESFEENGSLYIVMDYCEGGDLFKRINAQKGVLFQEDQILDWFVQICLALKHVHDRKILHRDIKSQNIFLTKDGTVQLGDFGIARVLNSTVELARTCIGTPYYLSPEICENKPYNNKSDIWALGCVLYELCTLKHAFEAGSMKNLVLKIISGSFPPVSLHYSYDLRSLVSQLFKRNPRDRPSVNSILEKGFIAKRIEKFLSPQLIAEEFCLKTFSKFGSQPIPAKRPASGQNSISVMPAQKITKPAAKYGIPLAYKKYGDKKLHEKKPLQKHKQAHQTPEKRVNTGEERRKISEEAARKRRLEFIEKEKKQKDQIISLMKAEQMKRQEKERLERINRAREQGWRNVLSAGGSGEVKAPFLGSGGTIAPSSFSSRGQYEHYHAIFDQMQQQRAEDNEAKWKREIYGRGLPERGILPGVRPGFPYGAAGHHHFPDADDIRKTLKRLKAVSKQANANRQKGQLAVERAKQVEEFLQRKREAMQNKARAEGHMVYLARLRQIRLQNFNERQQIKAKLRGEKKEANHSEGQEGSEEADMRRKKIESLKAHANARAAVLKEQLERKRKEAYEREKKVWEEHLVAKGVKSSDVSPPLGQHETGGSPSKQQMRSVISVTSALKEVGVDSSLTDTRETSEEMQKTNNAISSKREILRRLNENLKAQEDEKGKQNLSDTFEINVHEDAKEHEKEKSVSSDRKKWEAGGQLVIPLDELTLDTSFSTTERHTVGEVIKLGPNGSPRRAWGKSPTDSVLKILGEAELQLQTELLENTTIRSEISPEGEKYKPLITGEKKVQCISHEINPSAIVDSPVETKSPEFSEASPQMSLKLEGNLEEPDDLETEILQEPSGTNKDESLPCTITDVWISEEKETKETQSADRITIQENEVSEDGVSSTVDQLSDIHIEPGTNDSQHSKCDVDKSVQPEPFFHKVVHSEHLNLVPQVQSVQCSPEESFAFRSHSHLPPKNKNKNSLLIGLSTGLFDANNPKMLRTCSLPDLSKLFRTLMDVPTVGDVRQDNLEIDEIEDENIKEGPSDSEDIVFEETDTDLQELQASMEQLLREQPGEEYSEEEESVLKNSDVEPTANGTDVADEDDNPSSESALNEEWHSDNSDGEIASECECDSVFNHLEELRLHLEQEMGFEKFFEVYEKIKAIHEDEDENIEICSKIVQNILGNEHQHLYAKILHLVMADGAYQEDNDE
The conditions noted are these: NEK1; 1 uM; read-out: Percent Control (%). The method, boiled down: as §1

Assay [4] addresses T4, scanMAX Kinase assay panel (Homo sapiens, UniProt P17948).
T4 construct: purchased DiscoverX
Particulars: FLT1; 1 uM; read-out: Percent Control (%). In short, it runs like this:
as §1

For assay [5], the target named is T5, scanMAX Kinase assay panel (Homo sapiens, UniProt P42680).
T5 construct: purchased DiscoverX
T5 sequence (P42680 1-631): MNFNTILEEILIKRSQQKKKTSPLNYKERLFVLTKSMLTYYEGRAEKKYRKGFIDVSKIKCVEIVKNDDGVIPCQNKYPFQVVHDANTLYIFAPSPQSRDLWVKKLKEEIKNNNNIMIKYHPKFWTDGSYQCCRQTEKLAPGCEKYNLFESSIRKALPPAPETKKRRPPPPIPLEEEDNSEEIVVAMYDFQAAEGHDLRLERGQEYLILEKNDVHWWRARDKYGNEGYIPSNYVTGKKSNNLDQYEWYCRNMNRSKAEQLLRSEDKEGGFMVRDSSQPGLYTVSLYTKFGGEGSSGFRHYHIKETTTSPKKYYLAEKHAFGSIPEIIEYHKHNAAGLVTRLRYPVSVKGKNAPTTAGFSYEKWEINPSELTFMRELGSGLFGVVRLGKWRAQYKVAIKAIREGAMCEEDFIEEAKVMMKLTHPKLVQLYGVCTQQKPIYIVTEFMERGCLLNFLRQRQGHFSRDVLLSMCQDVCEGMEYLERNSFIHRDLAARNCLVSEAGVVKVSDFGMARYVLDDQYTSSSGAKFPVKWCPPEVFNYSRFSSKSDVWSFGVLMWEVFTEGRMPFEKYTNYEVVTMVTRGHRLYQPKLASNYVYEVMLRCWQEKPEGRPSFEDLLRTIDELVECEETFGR
The conditions noted are these: TEC; 1 uM; read-out: Percent Control (%). In short, it runs like this: as §1

T1 sequence (Q9H4A3 whole entry): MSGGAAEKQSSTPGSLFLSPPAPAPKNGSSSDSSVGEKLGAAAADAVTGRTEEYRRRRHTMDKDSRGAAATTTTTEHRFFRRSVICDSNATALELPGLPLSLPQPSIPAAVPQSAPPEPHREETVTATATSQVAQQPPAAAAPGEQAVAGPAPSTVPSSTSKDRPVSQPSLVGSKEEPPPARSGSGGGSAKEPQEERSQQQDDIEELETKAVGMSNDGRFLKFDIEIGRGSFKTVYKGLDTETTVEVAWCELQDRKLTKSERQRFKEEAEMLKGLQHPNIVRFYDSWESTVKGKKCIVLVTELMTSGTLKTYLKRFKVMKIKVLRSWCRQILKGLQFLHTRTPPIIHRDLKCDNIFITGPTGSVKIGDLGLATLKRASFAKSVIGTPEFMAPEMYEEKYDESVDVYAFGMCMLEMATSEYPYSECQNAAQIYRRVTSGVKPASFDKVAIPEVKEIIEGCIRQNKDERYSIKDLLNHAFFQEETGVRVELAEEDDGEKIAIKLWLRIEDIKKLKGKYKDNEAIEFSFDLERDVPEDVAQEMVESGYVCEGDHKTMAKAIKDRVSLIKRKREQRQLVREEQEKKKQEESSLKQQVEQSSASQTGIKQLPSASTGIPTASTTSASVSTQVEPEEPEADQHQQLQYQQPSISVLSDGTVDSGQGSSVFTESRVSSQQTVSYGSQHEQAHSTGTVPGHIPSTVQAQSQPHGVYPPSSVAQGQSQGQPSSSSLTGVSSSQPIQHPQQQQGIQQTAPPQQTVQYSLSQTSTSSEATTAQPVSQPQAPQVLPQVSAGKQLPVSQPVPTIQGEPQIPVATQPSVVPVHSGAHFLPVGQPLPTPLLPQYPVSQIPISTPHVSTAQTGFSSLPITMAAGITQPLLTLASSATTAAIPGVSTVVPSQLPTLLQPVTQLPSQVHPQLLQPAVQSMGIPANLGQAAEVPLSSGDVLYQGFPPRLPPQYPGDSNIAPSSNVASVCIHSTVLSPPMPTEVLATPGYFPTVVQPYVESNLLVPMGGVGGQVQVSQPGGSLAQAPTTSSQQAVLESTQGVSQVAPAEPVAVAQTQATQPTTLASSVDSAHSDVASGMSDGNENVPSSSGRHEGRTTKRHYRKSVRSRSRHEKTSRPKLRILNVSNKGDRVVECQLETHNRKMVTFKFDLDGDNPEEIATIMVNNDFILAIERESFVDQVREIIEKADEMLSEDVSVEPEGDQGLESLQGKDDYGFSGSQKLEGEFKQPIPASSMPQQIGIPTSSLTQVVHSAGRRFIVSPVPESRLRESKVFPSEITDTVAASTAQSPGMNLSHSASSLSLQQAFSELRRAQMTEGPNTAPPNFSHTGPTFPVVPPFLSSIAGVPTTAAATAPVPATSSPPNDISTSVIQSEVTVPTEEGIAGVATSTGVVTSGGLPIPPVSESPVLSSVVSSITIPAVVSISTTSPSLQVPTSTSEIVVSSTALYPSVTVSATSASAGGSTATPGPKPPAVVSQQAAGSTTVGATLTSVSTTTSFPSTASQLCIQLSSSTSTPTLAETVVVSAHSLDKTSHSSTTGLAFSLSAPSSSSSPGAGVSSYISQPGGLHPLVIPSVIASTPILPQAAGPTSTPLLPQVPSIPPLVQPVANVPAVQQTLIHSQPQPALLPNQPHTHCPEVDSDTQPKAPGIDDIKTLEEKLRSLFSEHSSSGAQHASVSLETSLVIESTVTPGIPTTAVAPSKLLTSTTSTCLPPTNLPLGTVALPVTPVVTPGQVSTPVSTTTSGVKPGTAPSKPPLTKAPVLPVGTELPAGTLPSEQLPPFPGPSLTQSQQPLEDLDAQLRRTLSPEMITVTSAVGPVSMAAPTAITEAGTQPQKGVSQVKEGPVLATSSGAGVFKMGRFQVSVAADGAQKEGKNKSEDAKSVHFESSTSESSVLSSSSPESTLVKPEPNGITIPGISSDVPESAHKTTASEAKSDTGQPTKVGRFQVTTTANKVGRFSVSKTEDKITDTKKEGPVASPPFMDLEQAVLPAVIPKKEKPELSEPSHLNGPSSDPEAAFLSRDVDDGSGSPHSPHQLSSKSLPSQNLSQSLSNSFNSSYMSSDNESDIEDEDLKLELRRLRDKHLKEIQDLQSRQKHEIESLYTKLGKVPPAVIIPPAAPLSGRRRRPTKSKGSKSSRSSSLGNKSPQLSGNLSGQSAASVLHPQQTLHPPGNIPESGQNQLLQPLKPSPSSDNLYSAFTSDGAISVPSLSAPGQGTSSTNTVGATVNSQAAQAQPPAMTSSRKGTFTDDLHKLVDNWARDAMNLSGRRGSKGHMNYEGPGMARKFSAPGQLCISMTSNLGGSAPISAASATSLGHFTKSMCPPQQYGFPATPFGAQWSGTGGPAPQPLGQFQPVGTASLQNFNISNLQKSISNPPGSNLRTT
T4 sequence (P17948 27-1338): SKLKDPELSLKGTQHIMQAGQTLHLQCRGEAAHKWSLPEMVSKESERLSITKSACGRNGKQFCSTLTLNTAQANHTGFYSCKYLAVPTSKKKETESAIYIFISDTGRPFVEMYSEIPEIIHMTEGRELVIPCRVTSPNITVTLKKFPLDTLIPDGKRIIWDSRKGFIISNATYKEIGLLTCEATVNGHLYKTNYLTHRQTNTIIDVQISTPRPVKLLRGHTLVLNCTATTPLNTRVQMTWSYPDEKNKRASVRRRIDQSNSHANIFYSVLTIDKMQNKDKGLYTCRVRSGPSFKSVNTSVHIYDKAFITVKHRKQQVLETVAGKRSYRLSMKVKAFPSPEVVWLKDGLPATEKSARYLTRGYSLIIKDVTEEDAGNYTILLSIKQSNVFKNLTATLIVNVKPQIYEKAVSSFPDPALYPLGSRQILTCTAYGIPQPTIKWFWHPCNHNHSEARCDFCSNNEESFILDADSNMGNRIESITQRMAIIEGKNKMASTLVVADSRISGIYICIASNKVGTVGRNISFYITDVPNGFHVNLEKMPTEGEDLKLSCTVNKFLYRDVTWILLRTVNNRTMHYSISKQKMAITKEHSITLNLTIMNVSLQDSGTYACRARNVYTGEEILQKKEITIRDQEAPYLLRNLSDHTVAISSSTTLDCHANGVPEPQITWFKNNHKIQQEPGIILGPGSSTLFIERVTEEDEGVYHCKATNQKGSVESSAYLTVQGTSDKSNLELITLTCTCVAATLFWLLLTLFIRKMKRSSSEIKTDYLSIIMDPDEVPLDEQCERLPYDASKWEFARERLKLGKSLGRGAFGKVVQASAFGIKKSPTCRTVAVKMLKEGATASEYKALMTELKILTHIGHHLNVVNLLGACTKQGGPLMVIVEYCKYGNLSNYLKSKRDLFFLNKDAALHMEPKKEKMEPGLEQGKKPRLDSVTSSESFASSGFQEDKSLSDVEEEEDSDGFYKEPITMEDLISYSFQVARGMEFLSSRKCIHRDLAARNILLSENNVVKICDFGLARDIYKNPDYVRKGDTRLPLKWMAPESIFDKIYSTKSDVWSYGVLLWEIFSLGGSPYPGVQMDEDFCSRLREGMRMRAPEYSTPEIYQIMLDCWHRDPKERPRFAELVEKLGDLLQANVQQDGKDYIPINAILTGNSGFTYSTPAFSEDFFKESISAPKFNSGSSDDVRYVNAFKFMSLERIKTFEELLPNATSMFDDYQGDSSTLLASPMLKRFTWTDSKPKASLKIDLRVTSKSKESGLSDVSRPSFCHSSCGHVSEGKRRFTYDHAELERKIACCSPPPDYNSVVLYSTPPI

Turning to `Cc1ccc(C(=O)Nc2ccc(CN3CCN(C)CC3)c(C(F)(F)F)c2)cc1C#Cc1cnc2c(Nc3cnn(C)c3)cccn12` [Example 1, 4-methyl-3-((8-((1-methyl-1H-pyrazol-4-yl)amino)imidazo[1,2-a]pyridin-3-yl)ethynyl)-N-(4-((4-methylpiperazin-1-yl)methyl)-3-(trifluoromethyl)phenyl)benzamide], the remaining binding at 1 µM turned out to be 55% in assay [1]; 75% in assay [2]; 52% in assay [3]; 3% in assay [4]; 0% in assay [5].
For `Cc1cn(-c2cc(NC(=O)c3ccc(C)c(C#Cc4cnc5c(Nc6cnn(C)c6)cccn45)c3)cc(C(F)(F)F)c2)cn1` [Example 12, 4-methyl-N-(3-(4-methyl-1H-imidazol-1-yl)-5-(trifluoromethyl)phenyl)-3-((8-((1-methyl-1H-pyrazol-4-yl)amino)imidazo[1,2-a]pyridin-3-yl)ethynyl)benzamide], the remaining binding at 1 µM in assay [1] amounted to 100%; in assay [2], 91%; in assay [3] it was 96%; in assay [4], 16%; in assay [5], 8%.
The like results for `Cc1ccc(NC(=O)C2(C(=O)Nc3ccc(F)cc3)CC2)cc1C#Cc1cnc2c(Nc3cnn(C(C)C)c3)cccn12` [Example 78] were, in that order, 92%, 94%, 100%, 84% and 100%.
